Measured values reported in the supplement of paper PMC10307832.

Legend:
Assay in all cases: relative viability (nuclei count vs DMSO), 5 days (fraction); higher = more cells survive
Motesanib + Trametinib = compound: CC1(C)CNc2cc(NC(=O)c3cccnc3NCc3ccncc3)ccc21 [Motesanib] + CC(=O)Nc1cccc(-n2c(=O)n(C3CC3)c(=O)c3c(Nc4ccc(I)cc4F)n(C)c(=O)c(C)c32)c1 [Trametinib] (partner 0.02 µM)
Method in brief: (§1)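 Lung cancer cell lines in 1536-well plates were dosed by pin tool the day after seeding, either with one drug alone or with a fixed anchor-drug dose plus five library-drug doses (not always all listed) in √10 steps. After 5 days, cells were fixed and their nuclei stained in one step (final 0.05% Triton X-100, 1% formaldehyde, 1 ug/ml Hoechst), then counted on 4× images. Relative viability is the nuclei count in treated wells divided by that in vehicle wells. Values are medians of duplicate plates.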

Motesanib + Bortezomib = compound: CC1(C)CNc2cc(NC(=O)c3cccnc3NCc3ccncc3)ccc21 [Motesanib] + CC(C)C[C@H](NC(=O)[C@H](Cc1ccccc1)NC(=O)c1cnccn1)B(O)O [Bortezomib] (partner 0.002 µM)
Method in brief: as §1

Motesanib + Decitabine = compound: CC1(C)CNc2cc(NC(=O)c3cccnc3NCc3ccncc3)ccc21 [Motesanib] + Nc1ncn([C@H]2C[C@H](O)[C@@H](CO)O2)c(=O)n1 [Decitabine] (partner 2 µM)
Method in brief: as §1

[1] = compound: C[C@@]1(C(=O)Nc2ccc(F)nc2)CCCN1c1nc(Nc2cc(C3CC3)n[nH]2)c2cccn2n1 + C[C@@H](Oc1cc(-c2cnn(C3CCNCC3)c2)cnc1N)c1c(Cl)ccc(F)c1Cl [Crizotinib] (partner 1 µM)
Method in brief: as §1

| Cell Line | relative viability (Motesanib + Trametinib; first compound 0.01 µM) | relative viability (Motesanib + Trametinib; first compound 0.03162 µM) | relative viability (Motesanib + Trametinib; first compound 0.1 µM) | relative viability (Motesanib + Trametinib; first compound 0.3162 µM) | relative viability (Motesanib + Trametinib; first compound 1 µM) | relative viability (Motesanib + Bortezomib; first compound 0.01 µM) | relative viability (Motesanib + Bortezomib; first compound 0.03162 µM) | relative viability (Motesanib + Bortezomib; first compound 0.1 µM) | relative viability (Motesanib + Bortezomib; first compound 0.3162 µM) | relative viability (Motesanib + Bortezomib; first compound 1 µM) | relative viability (Motesanib + Decitabine; first compound 0.01 µM) | relative viability (Motesanib + Decitabine; first compound 0.03162 µM) | relative viability (Motesanib + Decitabine; first compound 0.1 µM) | relative viability (Motesanib + Decitabine; first compound 0.3162 µM) | relative viability (Motesanib + Decitabine; first compound 1 µM) | relative viability ([1]; first compound 0.04 µM) | relative viability ([1]; first compound 0.1265 µM) | relative viability ([1]; first compound 0.4 µM) | relative viability ([1]; first compound 1.265 µM) |
| --- | --- | --- | --- | --- | --- | --- | --- | --- | --- | --- | --- | --- | --- | --- | --- | --- | --- | --- | --- |
| NCI-H650 | 0.916 | 1.07 | 0.946 | 1.02 | 1.06 | 0.805 | 0.954 | 0.83 | 1.02 | 0.647 | 0.31 | 0.319 | 0.312 | 0.382 | 0.529 | 0.764 | 0.449 | 0.489 | 0.47 |
| PC-3 [JPC-3] | 0.745 | 0.676 | 0.795 | 0.779 | 0.703 | 0.921 | 0.802 | 0.879 | 0.922 | 0.968 | 0.803 | 0.836 | 0.858 | 0.897 | 1.01 | 1.03 | 0.921 | 0.905 | 1.01 |
